# Measured values reported in US12691100B2, “NMT inhibitor treatment of a senescence-associated disease or disorder of the liver” (Imperial College Innovations Limited, priority 2020, dated 2026).
# How the values were obtained:
# [1] = tested on: HCT116 colon cancer cells; assay: Senolytic survival assay, chemotherapy-induced senescence in cancer cells; format: cell-based, human; details: second experiment: doxorubicin 100 nM, etoposide 2 μM or cisplatin 100 μM, or DMSO; replenished after 72 h, 48 h more; FIGS. 7A-C
# Description: IMR90 cells were used to generate inducible ER:RAS (hereinafter iRAS) cells to model Oncogene induced senescence (OIS), through retroviral infection of pLNC-ER:RAS-neo into IMR90 cells followed by selection with Neomycin. IMR90 cells containing the pLNC-ER:RAS plasmid backbone pLXSN were infected in parallel to assess leakiness in the pLNC-ER:RAS system. Treatment with 100 nM 4OHT (Sigma, in DMSO) was used to induce IMR90 ER:RAS cells to undergo oncogene induced senescence (OIS). Therapy induced senescence (TIS) was induced in IMR90 cells by treatment with 33 μM (50 ug/ml) bleomycin sulphate (Generon, HY-17565) for 24 hours, 20 μM palbociclib (Selleckchem, S1116) for 7 days or 100 nM doxorubicin (Cayman chemical, 15007) for 7 days. Senescence was induced in SK-HEP-1 cells by treatment with 2 μM etoposide (Sigma-Aldrich, E1383) for 7 days (FIGS. 4A-C). HCT-116 senescence was induced by 250 nM treatment with doxorubicin (Cayman chemical, 15007) for 48 hours followed by 5 days culture in media without chemotherapy (FIG. 5), or by treatment with 100 nM doxorubicin, 2 μM etoposide or 100 μM cisplatin for 3 days followed by 4 days culture in media without chemotherapy (FIGS. 6A-7C). Senescence was induced in MCF7 by 200 nM treatment with doxorubicin for 7 days, 2 μM etoposide for 7 days or 10 μM cisplatin for 7 days (FIGS. 8A-9C).
# High-throughput microscopy survival assay—To assess senolytic effect of drugs, cells were cultured for 7 days, culture media was changed to DM0.5 media and drugs in DMSO were added (<5% v/v final concentration), drugs were replenished after 3 days if assay length was longer than 72 h. Wells were fixed in 4% PFA for 1 hour at day 10 to 14, washed 3 times with PBS and then stained with 1 μg/mL DAPI (w/v, PBS) for 10 minutes. Wells were then washed 3 times with PBS. Optionally plates could be stored at 4° C. for up to 2 weeks and DAPI stained. Image acquisition of DAPI stained cells was performed on an automated InCell Analyser 2000 (GE Healthcare®) and high-content analysis on the InCell Investigator 2.7.3 software used to quantify number of DAPI positive cells per well. […] Survival was measured as cell counts relative to DMSO treated quiescent or senescent cells.
# In a first experiment, HCT116 colon cancer cells were treated with doxorubicin (to induce senescence), or DMSO (as a control). […] 7 days after adding the drugs with replenishment after 3 days, cells were fixed, imaged and cells numbers were quantified using high throughput microscopy. […]
# In a second experiment, HCT116 were treated with doxorubicin, etoposide or cisplatin (to induce senescence) or DMSO (as a control). 7 days after treatment, BrdU incorporation (to assess cell division), SA-β-Galactosidase activity and p21^CIP1 expression (as markers of senescence) were analysed. […]
# [2] = tested on: senescent preneoplastic hepatocytes; assay: Model of liver cancer initiation (Nras G12V by hydrodynamic tail vein injection); format: in vivo, C57BL/6J mice; details: 25 mg/kg i.p. daily for 4 days from day 5 after HDTVI; FIGS. 16C-E
# Description: All mice were purchased from Charles River UK, Ltd. For Hydrodynamic tail vein injection (HDTVI) experiments female C57BL/6J mice aged 5-6 weeks were given 20 μg of Nras^G12V & gaussia luciferase (Gluc) expressing plasmid and 5 μg of SB13 transposase-expressing plasmid. Plasmids were prepared using GeneElute HP Endotoxin-free Plasmid Maxiprep kit (Sigma). Purified plasmids were diluted in sterile-filtered PBS to a total volume of 10% mouse body weight and injected into mouse lateral tail vein within a 10 s window. 4 days after HDTVI, mice were bled to assess presence of gaussia luciferase signal in the blood serum and used to randomize/equalize groupings for vehicle and drug treated groups. […]
# Immunohistochemical staining—Slides were deparaffinised by washing slides twice in Histoclear™ for 5 min each, followed by 5 min washes in decreasing concentrations of ethanol with 100%, 75%, 50% & 25% ethanol washes before a final wash 5 min in dH2O. […] Signal development was stopped when visible positive cells could be detected on a microscope, by washing slides in dH2O. […]
# Slide image acquisition & analysis—Slides were acquired using a 20× brightfield objective on a Zeiss Axio Scan Z.1 slide scanner and analysis performed using QuPath version 0.2.0-m9 using in built positive cell detection tool to segment Haematoxylin stained nuclei and quantify mean intensity of DAB. […]
# [3] = Blood markers (Vetscan) in a separate cohort of old mice; format: in vivo, female C57/BL6 mice; details: ~19 mo females, before 4th round, Compound 2 10 mg/kg, Compound 3 25 mg/kg, versus vehicle
# Description: Blood was collected prior to each round of injection for physiological assessments. Mice were allowed to rest 4 weeks prior to being culled and organs collected for freezing in OCT, paraffin embedding and snap-freezing for RNA extraction.
# For analysis of immune cell composition in whole blood, tail-vein blood was collected 2 days after last treatment. Whole blood was diluted in saline to a volume of […] and ran on a Sysmex XE2100 automated cell counter. Blood glucose levels were determined by collecting whole-blood from tail vein into heparinised tubes (Abraxis), 120-140 μL of whole-blood to be loaded onto a comprehensive diagnostic profile reagent rotor (Abraxis) and run on a VetScan VS2 Chemistry Analyzer (Abraxis: 500-7123).
# Further experiments were performed on a separate cohort of old mice. […] This regimen was repeated 4 more times and blood was collected for Vetscan measurements prior to the 4th round of treatment (FIG. 19). At that stage, ~19 mo females presented elevated levels of ALT, amylase and glucose in blood when compared with young mice (FIG. 20A).
smiles,measurement,setting,value
"Cc1c(CCOc2cc(Cl)ccc2-c2ccc3ncc(CCN)n3c2)c(C(=O)N(C)C)nn1C [Compound 3, 4-(2-{2-[3-(2-aminoethyl)imidazo[1,2-a]pyridin-6-yl]-5-chlorophenoxy}ethyl)-N,N,1,5-tetramethyl-1H-pyrazole-3-carboxamide]","Survival, senescent versus control cells",[1],"preferentially kill cancer cells that undergo senescence after being treated with doxorubicin, etoposide or cisplatin"
same,Number of senescent preneoplastic hepatocytes,[2],reduces the number senescent preneoplastic hepatocytes
same,ALT in blood,[3]; FIG. 20A,lower level
same,Amylase in blood,[3]; FIG. 20B,lower level
same,Glucose in blood,[3]; FIG. 20C,lower level
